Laboratory results: ChEMBL document CHEMBL1201862, “PubChem BioAssay data set” (2004)
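Protocol summary: plate cells (96-well), add compound at 5 concentrations, incubate 48 h, interpolate endpoints linearly. GI50 = concentration required for 50% inhibition of growth.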 Active and inactive are the calls of the source. No stated cut-off is given here; in the data, active = GI50 up to about 1.1 µM and inactive = higher.

What was measured:
Assay in all cases: NCI-60 cell line screen, 48 h
CCRF-CEM = test system: CCRF-CEM
RPMI-8226 = test system: RPMI-8226
OVCAR-3 = test system: OVCAR-3
HOP-62 = test system: HOP-62
HOP-92 = test system: HOP-92
K562 = test system: K562
HL-60 = test system: HL-60
ACHN = test system: ACHN
786-0 = test system: 786-0
COLO 205 = test system: COLO 205
OVCAR-4 = test system: OVCAR-4
OVCAR-8 = test system: OVCAR-8
LOX IMVI = test system: LOX IMVI
UO-31 = test system: UO-31
SK-MEL-5 = test system: SK-MEL-5
SK-MEL-2 = test system: SK-MEL-2

Measured: GI50

OCCCc1cnco1
inactive: CCRF-CEM > 100 µM | RPMI-8226 > 100 µM | OVCAR-3 > 100 µM | HOP-62 > 100 µM | HOP-92 > 100 µM | K562 > 100 µM | HL-60 > 100 µM | ACHN > 100 µM | 786-0 > 100 µM | COLO 205 > 100 µM | OVCAR-4 > 100 µM | OVCAR-8 > 100 µM | LOX IMVI > 100 µM | UO-31 > 100 µM | SK-MEL-5 > 100 µM

CC(=O)NC(CCCCNC(=O)OCc1ccccc1)C(=O)NCc1ccccc1 (stereo not drawn)
inactive: CCRF-CEM > 100 µM | RPMI-8226 > 100 µM | OVCAR-3 > 100 µM | HOP-62 > 100 µM | HOP-92 > 100 µM | K562 > 100 µM | SK-MEL-2 > 100 µM | ACHN > 100 µM | 786-0 > 100 µM | COLO 205 > 100 µM | OVCAR-4 > 100 µM | OVCAR-8 > 100 µM | LOX IMVI > 100 µM | UO-31 > 100 µM | SK-MEL-5 > 100 µM

ClC1=C(Cl)C(Cl)(Cl)c2c3c(c4c(c21)C(Cl)(Cl)C(Cl)=C4Cl)C(Cl)(Cl)C(Cl)=C3Cl
inactive: CCRF-CEM > 100 µM | RPMI-8226 > 100 µM | OVCAR-3 > 100 µM | HOP-62 > 100 µM | K562 > 100 µM | HL-60 > 100 µM | ACHN > 100 µM | 786-0 > 100 µM | COLO 205 > 100 µM | OVCAR-8 > 100 µM | LOX IMVI > 100 µM | SK-MEL-5 > 100 µM

CN(C)c1ccc(N=O)c(O)c1.CN(C)c1ccc(N=O)c(O)c1.[SiH4]
inactive: CCRF-CEM 4.35 µM | RPMI-8226 31.6 µM | OVCAR-3 3.71 µM | HOP-62 23 µM | HOP-92 3.82 µM | K562 16.3 µM | HL-60 4.41 µM | ACHN 2.67 µM | 786-0 20.8 µM | COLO 205 2.96 µM | OVCAR-4 12.7 µM | OVCAR-8 12.9 µM | LOX IMVI 5.92 µM | UO-31 16.3 µM | SK-MEL-5 11.1 µM

O=C1c2ccccc2C2(O)c3cc4ccccc4cc3OC12O (stereo not drawn)
inactive: CCRF-CEM 47.2 µM | RPMI-8226 34 µM | OVCAR-3 53.6 µM | HOP-62 83.8 µM | HOP-92 27.6 µM | K562 46 µM | SK-MEL-2 47.3 µM | ACHN 97.3 µM | 786-0 > 100 µM | COLO 205 > 100 µM | OVCAR-4 84.7 µM | OVCAR-8 58.1 µM | LOX IMVI 68.5 µM | SK-MEL-5 30.1 µM

CCSc1nc(-c2ccc(OC)cc2)c(C#N)c(=O)n1C1OCC(OC(C)=O)C(OC(C)=O)C1OC(C)=O (stereo not drawn)
inactive: RPMI-8226 78.5 µM | HOP-62 > 100 µM | HOP-92 > 100 µM | K562 > 100 µM | SK-MEL-2 > 100 µM | ACHN > 100 µM | 786-0 > 100 µM | COLO 205 > 100 µM | OVCAR-4 > 100 µM | UO-31 > 100 µM | SK-MEL-5 93.3 µM

CC(=O)NN1C(=O)C(Cc2ccccc2)c2ccccc21 (stereo not drawn)
inactive: CCRF-CEM > 100 µM | RPMI-8226 > 100 µM | OVCAR-3 > 100 µM | HOP-62 > 100 µM | HOP-92 > 100 µM | K562 > 100 µM | SK-MEL-2 > 100 µM | ACHN > 100 µM | 786-0 > 100 µM | COLO 205 > 100 µM | OVCAR-4 > 100 µM | OVCAR-8 > 100 µM | LOX IMVI > 100 µM | UO-31 > 100 µM | SK-MEL-5 > 100 µM

Cc1ccc(Sc2cc([N+](=O)[O-])cc(Sc3ccc(C)cc3)c2Sc2ccc(C)cc2)cc1
inactive: CCRF-CEM 27.2 µM | RPMI-8226 > 100 µM | OVCAR-3 > 100 µM | HOP-62 > 100 µM | K562 48.8 µM | HL-60 > 100 µM | SK-MEL-2 > 100 µM | ACHN > 100 µM | 786-0 51.6 µM | COLO 205 > 100 µM | OVCAR-8 74.6 µM | LOX IMVI > 100 µM | UO-31 > 100 µM | SK-MEL-5 > 100 µM

CC(=O)OCC1OC(n2c(-c3ccc(N)cc3)cc(-c3ccco3)c(C#N)c2=O)C(OC(C)=O)C(OC(C)=O)C1OC(C)=O (stereo not drawn)
inactive: OVCAR-3 > 50 µM | HOP-62 > 50 µM | HOP-92 4.08 µM | SK-MEL-2 22.4 µM | ACHN > 50 µM | 786-0 14.2 µM | COLO 205 > 50 µM | OVCAR-4 38.5 µM | OVCAR-8 5.87 µM | LOX IMVI 8.04 µM | UO-31 > 50 µM | SK-MEL-5 8.93 µM

O=C1CCCCC1CN1CCCC1 (stereo not drawn)
inactive: CCRF-CEM 65.6 µM | RPMI-8226 84.3 µM | OVCAR-3 > 100 µM | HOP-62 > 100 µM | K562 > 100 µM | HL-60 > 10 µM | SK-MEL-2 > 100 µM | ACHN > 100 µM | 786-0 > 100 µM | COLO 205 > 100 µM | OVCAR-4 > 100 µM | OVCAR-8 > 100 µM | LOX IMVI > 100 µM | SK-MEL-5 > 100 µM

COC(=O)C1=C(SC)SC2(C(=O)OC)C3C=C(C)C4C(N13)C42C(=O)OC (stereo not drawn)
inactive: CCRF-CEM > 100 µM | RPMI-8226 > 100 µM | OVCAR-3 > 100 µM | HOP-62 > 100 µM | K562 > 100 µM | HL-60 > 100 µM | SK-MEL-2 > 100 µM | ACHN > 100 µM | 786-0 > 100 µM | COLO 205 > 100 µM | OVCAR-8 > 100 µM | LOX IMVI > 100 µM | UO-31 > 100 µM | SK-MEL-5 83.6 µM

Nc1ccc(C(=O)NN2C(=O)C(Cl)C2c2ccccc2)cc1 (stereo not drawn)
inactive: CCRF-CEM > 100 µM | RPMI-8226 > 100 µM | OVCAR-3 > 100 µM | HOP-62 > 100 µM | HOP-92 > 100 µM | K562 > 100 µM | SK-MEL-2 > 100 µM | ACHN > 100 µM | 786-0 > 100 µM | COLO 205 > 100 µM | OVCAR-4 > 100 µM | OVCAR-8 > 100 µM | LOX IMVI > 100 µM | UO-31 > 100 µM | SK-MEL-5 > 100 µM

O=C(Cc1nc2ccccc2o1)C(=O)Nc1ccc(Cl)cc1Cl
inactive: RPMI-8226 > 100 µM | OVCAR-3 > 100 µM | HOP-62 > 100 µM | HOP-92 > 100 µM | K562 > 100 µM | SK-MEL-2 > 100 µM | ACHN > 100 µM | 786-0 > 100 µM | COLO 205 > 100 µM | OVCAR-4 > 100 µM | OVCAR-8 > 100 µM | UO-31 > 100 µM

COc1cc(/C=C2/C(=O)N(C(=O)OCc3ccccc3)C(Cc3cc(OC)c(OC)c(C)c3OC)C(=O)N2Cc2ccccc2)c(OC)c(C)c1OC (stereo not drawn)
inactive: RPMI-8226 20.9 µM | OVCAR-3 48.8 µM | HOP-62 > 100 µM | HOP-92 2.64 µM | K562 39 µM | HL-60 7.52 µM | SK-MEL-2 87.3 µM | ACHN > 100 µM | 786-0 > 100 µM | COLO 205 > 100 µM | OVCAR-4 > 100 µM | OVCAR-8 > 100 µM | LOX IMVI > 100 µM | UO-31 > 100 µM | SK-MEL-5 19.4 µM
